This is an account of results in patent US11111245B2, “Derivatives of N-cycloalkyl/heterocycloalkyl-4-(imidazo[1,2-a]pyridine)pyrimidin-2-amine as therapeutic agents” (Aucentra Therapeutics Pty Ltd, priority 2017, dated 2021).

Test [1] deals with CDK4/D1 (Homo sapiens, UniProt P11802). In words: ADP Glo Kinase assay CDK4/D1. The format is biochemical. Conditions: CDK4D1; for remaining activity at 10 µM: compound at 10 μM, read-out: residual activity (%) at 10 μM CDK4D1. In outline:
(§1)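 Other CDKs and further kinases were profiled externally by radiometric assay. In-house ADP Glo assays covered CDK4/D1 and CDK6/D3 (RB-CTF substrate, pH 7.5 Tris buffer with MgCl2, DTT, BSA) and CDK9/T1 (RBER-IRStide substrate), 40 min at 37° C.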

Test [2] addresses CDK6/D3 (Homo sapiens, UniProt Q00534). In words: ADP Glo Kinase assay CDK6/D3. The format is biochemical. Particulars: CDK6D3; compound at 10 μM; read-out: residual activity (%) at 10 μM CDK6D3. The method, then: Eurofins Pharma Discovery or Reaction Biology Corporation Kinase Profiler services were used to measure inhibition of CDKs and other kinases by radiometric assay. Inhibition of CDK4/D1, CDK6/D3 and CDK9/T1 were also determined in-house using ADP Glo Kinase assays (Promega Corporation, Madison, USA). Briefly, the kinase reaction for CDK4/D1 and CDK6/D3 was performed with kinase reaction buffer ([…] Tris base pH 7.5, 20 mM MgCl2, 0.4 mM DTT), 0.1 mg/ml BSA and RB-CTF substrate (retinoblastoma protein 1 C-terminal fraction). For CDK9/CyclinT1, the kinase reaction was performed with standard assay buffer and Kinase Dilution Buffer and RBER-IRStide substrate. Serial dilutions of 1:3 were prepared for test compounds for 10 concentrations (from 10 μM to 0.5 nM). The kinase reactions were started by addition of ATP, incubated for 40 min at 37° C. and then stopped by adding 10 μL of ADP Glo reagent. After incubation at room temperature in the dark for 40 min, 20 μL of kinase detection reagent was added per well and incubated for 40 min. Luminescence was measured using an EnVision Multilabel plate reader (PerkinElmer, Buckinghamshire, UK). Positive and negative controls were performed in the presence and absence of CDK kinases, respectively. Half-maximal inhibition (IC50) values were calculated using a 4-parameter logistic non-linear regression model with Graphpad prism (Version 6.0). Apparent inhibition constants (Ki) values were calculated from Km (ATP) and IC50 values for the respective kinases.

Test [3] addresses CDK9/T1 (Homo sapiens, UniProt P50750). In words: ADP Glo Kinase assay CDK9/T1. Format: biochemical. Conditions: CDK9T1; read-out: CDK inhibition, Ki (μM) CDK9T1. In outline: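 CDK4/D1 and CDK6/D3 were run in […] Tris pH 7.5, 20 mM MgCl2, 0.4 mM DTT, 0.1 mg/ml BSA with RB-CTF substrate; CDK9/T1 used RBER-IRStide. ATP-started reactions ran 40 min at 37° C, with ADP Glo luminescence read-out. IC50 came from 4-parameter fits; Ki from Km (ATP) and IC50.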

For test [4], the target named is T1, CDKs and other kinases (Homo sapiens, UniProt P06493).
T1 construct: other: CDK1B; residual activity (%) at 10 μM CDK1B; compound at 10 μM
In words: Radiometric kinase assay (Eurofins Pharma Discovery or Reaction Biology Corporation Kinase Profiler). The format is biochemical. Conditions: CDK1B; for Ki: read-out: CDK inhibition, Ki (μM) CDK1B; for remaining activity at 10 µM: compound at 10 μM, read-out: residual activity (%) at 10 μM CDK1B. The method in brief: as §1

Test [5] concerns the target T2, CDKs and other kinases (Homo sapiens, UniProt P24941).
T2 construct: other: CDK2A; residual activity (%) at 10 μM CDK2A; compound at 10 μM
The description is as above. The format is biochemical. Particulars: CDK2A; for Ki: read-out: CDK inhibition, Ki (μM) CDK2A; for remaining activity at 10 µM: compound at 10 μM, read-out: residual activity (%) at 10 μM CDK2A. The method in brief:
as §1

Test [6] addresses T3, CDKs and other kinases (Homo sapiens, UniProt P50613).
T3 construct: other: CDK7H; residual activity (%) at 10 μM CDK7H; compound at 10 μM
Described as above. Format: biochemical. Conditions: CDK7H; for Ki: read-out: CDK inhibition, Ki (μM) CDK7H; for remaining activity at 10 µM: compound at 10 μM, read-out: residual activity (%) at 10 μM CDK7H. The method in brief: as §1

Test [7] deals with leukemia cell lines. In words: Resazurin cell viability assay on leukemia cell lines (72 h growth inhibition, GI50). Conditions: Homo sapiens, MV4-11 cells. The format is cell-based. The method in brief:
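Standard published viability protocols apply here, MTT-based for solid tumour cells and resazurin-based for leukaemia cells, with 50% growth inhibition concentrations derived through non-linear regression.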

Sequence of CDK4/D1 (P11802 whole entry): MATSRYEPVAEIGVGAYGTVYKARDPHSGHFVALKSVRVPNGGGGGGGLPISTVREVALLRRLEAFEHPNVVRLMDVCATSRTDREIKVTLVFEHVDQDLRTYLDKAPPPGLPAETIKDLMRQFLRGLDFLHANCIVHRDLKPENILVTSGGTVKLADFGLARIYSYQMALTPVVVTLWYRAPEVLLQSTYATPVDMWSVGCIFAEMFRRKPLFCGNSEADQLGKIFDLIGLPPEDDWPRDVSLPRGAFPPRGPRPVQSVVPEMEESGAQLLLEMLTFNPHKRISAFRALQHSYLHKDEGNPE
Sequence of CDK4/D1 (P24385 whole entry partner): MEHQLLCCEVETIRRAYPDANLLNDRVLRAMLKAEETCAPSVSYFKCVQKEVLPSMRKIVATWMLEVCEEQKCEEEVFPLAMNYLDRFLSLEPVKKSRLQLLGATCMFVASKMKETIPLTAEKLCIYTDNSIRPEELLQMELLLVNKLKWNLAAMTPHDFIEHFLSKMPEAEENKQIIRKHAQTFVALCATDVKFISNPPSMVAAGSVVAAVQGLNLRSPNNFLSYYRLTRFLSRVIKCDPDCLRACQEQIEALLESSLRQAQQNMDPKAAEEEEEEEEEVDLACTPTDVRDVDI
T1 sequence (P06493 whole entry): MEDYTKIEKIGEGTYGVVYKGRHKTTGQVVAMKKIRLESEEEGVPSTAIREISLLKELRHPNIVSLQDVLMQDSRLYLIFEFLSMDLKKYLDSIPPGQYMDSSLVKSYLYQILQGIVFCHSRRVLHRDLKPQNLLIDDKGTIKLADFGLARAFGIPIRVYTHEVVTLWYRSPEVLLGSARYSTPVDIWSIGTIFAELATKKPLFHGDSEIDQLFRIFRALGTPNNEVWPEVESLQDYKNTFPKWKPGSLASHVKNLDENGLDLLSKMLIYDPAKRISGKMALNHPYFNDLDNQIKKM
Sequence of CDK6/D3 (Q00534 whole entry): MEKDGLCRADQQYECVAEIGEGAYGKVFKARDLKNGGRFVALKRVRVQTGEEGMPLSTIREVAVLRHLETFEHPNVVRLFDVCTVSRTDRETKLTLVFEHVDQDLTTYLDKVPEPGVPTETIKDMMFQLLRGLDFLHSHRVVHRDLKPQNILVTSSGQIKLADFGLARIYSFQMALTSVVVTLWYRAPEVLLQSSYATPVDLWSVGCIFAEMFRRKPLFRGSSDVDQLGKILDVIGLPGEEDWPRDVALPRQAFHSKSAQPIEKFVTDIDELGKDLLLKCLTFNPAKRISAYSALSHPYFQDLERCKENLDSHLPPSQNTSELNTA
Sequence of CDK6/D3 (P30281 whole entry partner): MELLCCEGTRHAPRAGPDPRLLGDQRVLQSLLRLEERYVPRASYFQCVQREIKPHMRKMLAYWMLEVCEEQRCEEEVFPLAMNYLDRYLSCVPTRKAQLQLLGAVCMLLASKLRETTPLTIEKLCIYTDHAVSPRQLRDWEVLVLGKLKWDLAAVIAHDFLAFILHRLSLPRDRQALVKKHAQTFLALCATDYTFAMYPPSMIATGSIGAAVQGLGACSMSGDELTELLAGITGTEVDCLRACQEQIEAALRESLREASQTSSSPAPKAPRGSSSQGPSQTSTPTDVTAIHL
T3 sequence (P50613 whole entry): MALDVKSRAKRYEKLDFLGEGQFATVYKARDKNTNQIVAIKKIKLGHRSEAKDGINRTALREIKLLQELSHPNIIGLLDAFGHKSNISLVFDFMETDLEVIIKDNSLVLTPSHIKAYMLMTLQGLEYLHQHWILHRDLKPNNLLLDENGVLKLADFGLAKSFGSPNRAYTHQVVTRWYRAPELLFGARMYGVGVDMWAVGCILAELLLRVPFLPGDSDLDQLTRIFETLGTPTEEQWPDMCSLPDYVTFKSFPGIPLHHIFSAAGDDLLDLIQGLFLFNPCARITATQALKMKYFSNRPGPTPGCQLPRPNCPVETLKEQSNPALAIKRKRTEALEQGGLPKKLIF
Sequence of CDK9/T1 (P50750 whole entry): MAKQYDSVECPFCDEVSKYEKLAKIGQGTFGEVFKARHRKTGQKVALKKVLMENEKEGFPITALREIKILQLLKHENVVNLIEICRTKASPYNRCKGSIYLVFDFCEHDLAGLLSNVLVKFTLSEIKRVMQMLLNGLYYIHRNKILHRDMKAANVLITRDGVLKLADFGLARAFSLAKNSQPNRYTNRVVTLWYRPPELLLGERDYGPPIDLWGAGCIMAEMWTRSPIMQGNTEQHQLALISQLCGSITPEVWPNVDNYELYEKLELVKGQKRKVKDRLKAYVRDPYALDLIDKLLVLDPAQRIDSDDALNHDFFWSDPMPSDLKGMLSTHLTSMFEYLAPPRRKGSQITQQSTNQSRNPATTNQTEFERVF
Sequence of CDK9/T1 (O60563 whole entry partner): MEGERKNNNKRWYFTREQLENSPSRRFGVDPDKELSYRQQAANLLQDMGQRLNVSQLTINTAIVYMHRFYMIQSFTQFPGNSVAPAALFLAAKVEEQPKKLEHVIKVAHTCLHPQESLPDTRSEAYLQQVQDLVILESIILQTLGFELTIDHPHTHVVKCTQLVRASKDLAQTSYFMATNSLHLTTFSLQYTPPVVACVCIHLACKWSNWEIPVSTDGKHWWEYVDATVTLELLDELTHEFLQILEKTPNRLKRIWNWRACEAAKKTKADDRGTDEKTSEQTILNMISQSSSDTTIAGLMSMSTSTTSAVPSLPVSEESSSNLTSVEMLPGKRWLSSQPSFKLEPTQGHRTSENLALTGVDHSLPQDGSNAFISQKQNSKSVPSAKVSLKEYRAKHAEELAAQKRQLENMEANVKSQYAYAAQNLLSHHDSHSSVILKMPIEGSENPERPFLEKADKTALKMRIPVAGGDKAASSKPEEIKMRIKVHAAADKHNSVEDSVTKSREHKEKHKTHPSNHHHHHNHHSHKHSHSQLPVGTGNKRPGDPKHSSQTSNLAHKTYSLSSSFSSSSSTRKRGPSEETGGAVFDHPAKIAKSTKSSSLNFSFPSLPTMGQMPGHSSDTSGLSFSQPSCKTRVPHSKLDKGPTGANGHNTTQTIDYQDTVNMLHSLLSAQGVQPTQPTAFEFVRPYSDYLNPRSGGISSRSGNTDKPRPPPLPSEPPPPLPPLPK

`N[C@H]1CC[C@H](Nc2ncc(Cl)c(-c3cnc4ccccn34)n2)CC1` [Compound 42, (1r,4r)-N^1-(5-chloro-4-(imidazo[1,2-a]pyridin-3-yl)pyrimidin-2-yl)cyclohexane-1,4-diamine]: the remaining activity at 10 µM in test [1] stood at 0%; in test [2], 45%. Also, the Ki in test [3] is 0.061 µM; in test [4] it was 0.46 µM; in test [5] it was 0.046 µM; in test [6], 0.024 µM. This compound displayed a concentration for 50% growth inhibition (GI50) in test [7] of 0.007 ± 0.001 µM.
`Cc1cnc(N[C@H]2CC[C@H](N)CC2)nc1-c1cnc2ccc(-c3ccncc3)cn12` [Compound 37, (1r,4r)-N^1-(5-Methyl-4-(6-(pyridin-4-yl)imidazo[1,2-a]pyridin-3-yl)pyrimidin-2-yl)cyclohexane-1,4-diamine]: the results for the remaining activity at 10 µM in test [1] and in test [2] were 7% and 96%, respectively. The Ki in test [3] stood at 0.12 µM; in test [4], 0.17 µM; in test [5] it was 0.044 µM; in test [6] it was 1.18 µM. The same compound gave a concentration for 50% growth inhibition (GI50) in test [7] of 0.013 ± 0.002 µM.
Regarding `Cc1cnc(N[C@H]2CC[C@H](N)CC2)nc1-c1cnc2ccccn12` [Compound 8, (1r,4r)-N^1-(4-(Imidazo[1,2-a]pyridin-3-yl)-5-methylpyrimidin-2-yl)cyclohexane-1,4-diamine], the results for the remaining activity at 10 µM in test [1] and in test [2] were 11% and 34%, respectively. In addition, the inhibition constant (Ki) is 0.035 µM in test [3], 3.81 µM in test [4], 0.35 µM in test [5] and 0.38 µM in test [6]. Further, in test [7], it took 0.066 ± 0.007 µM to inhibit growth by half (GI50).
Take `Cc1cnc(NC2CCC(NCC(F)(F)F)CC2)nc1-c1cnc2ccc(Nc3cncnc3)cn12` (stereo not drawn) [Compound 112, N^1-(5-Methyl-4-(6-(pyrimidin-5-ylamino)imidazo[1,2-a]pyridin-3-yl)pyrimidin-2-yl)-N^4-(2,2,2-trifluoroethyl) cyclohexane-1,4-diamine]: the Ki was above 5 µM in test [1] (read-out: CDK inhibition, Ki (μM) CDK4D1); 0.205 µM in test [3]; 1.73 µM in test [4]; 0.49 µM in test [5]; above 5 µM in test [6]. Further, the remaining activity at 10 µM in test [2] was determined as 45%. In addition, the GI50 in test [7] is 2.55 ± 1.7 µM.
`N[C@H]1CC[C@H](Nc2ncc(Cl)c(-c3cnc4ccc(-c5cncnc5)cn34)n2)CC1` [Compound 38, (1r,4r)-N^1-(5-Chloro-4-(6-(pyrimidin-5-yl)imidazo[1,2-a]pyridin-3-yl)pyrimidin-2-yl)cyclohexane-1,4-diamine]: the remaining activity at 10 µM was 0% in test [1] and 80% in test [2]. For the same compound, the Ki was 0.065 µM in test [3], 2.56 µM in test [4], 0.91 µM in test [5] and 0.58 µM in test [6]. It took 0.052 ± 0.011 µM to inhibit growth in test [7] by half (GI50).
Consider `Fc1cnc(N[C@H]2CC[C@H](Nc3ccccn3)CC2)nc1-c1cnc2ccc(-c3ccccc3)cn12` [Compound 28, (1r,4r)-N^1-(5-Fluoro-4-(6-phenylimidazo[1,2-a]pyridin-3-yl)pyrimidin-2-yl)-N4-(pyridin-2-yl)cyclohexane-1,4-diamine], for which the remaining activity at 10 µM in test [1] came out at 95%; in test [2] it was 100%; in test [4], 4%; in test [5], 8%; in test [6], 2%. For the same compound, the Ki in test [3] is 0.85 µM. In addition, the GI50 in test [7] was found to be 0.042 ± 0.017 µM.
Regarding `N[C@H]1CC[C@H](Nc2ncc(F)c(-c3cnc4ccc(-c5ncccc5F)cn34)n2)CC1` [Compound 27, (1r,4r)-N^1-(5-Fluoro-4-(6-(3-fluoropyridin-2-yl)imidazo [1,2-a]pyridin-3-yl)pyrimidin-2-yl)cyclohexane-1,4-diamine], the remaining activity at 10 µM is 4% in test [1]; 15% in test [2]; -1% in test [4]; 4% in test [5]; 2% in test [6]. For the same compound, the Ki in test [3] came to 0.003 µM. For the same compound, in test [7], the 50% growth inhibitory concentration (GI50) is below 0.001 µM.
For `Cc1cnc(N[C@H]2CC[C@@H](N)CC2)nc1-c1cnc2ccc(Nc3cccnc3)cn12` [Compound 92, (1s,4s)-N^1-(5-Methyl-4-(6-(pyridin-3-ylamino)imidazo [1,2-a]pyridin-3-yl)pyrimidin-2-yl)cyclohexane-1,4-diamine], the remaining activity at 10 µM amounted to 37% in test [1]; 58% in test [2]; 22% in test [4]; 27% in test [5]; 27% in test [6]. Also, in test [3], the Ki came to 0.089 µM. In test [7], this compound showed a GI50 of 0.179 ± 0.061 µM.
Regarding `Cc1cnc(N[C@H]2CC[C@H](N)CC2)nc1-c1cnc2ccc(Nc3ccccc3)cn12` [Compound 31, (1r,4r)-N^1-(5-Methyl-4-(6-(phenylamino)imidazo[1,2-a]pyridin-3-yl)pyrimidin-2-yl)cyclohexane-1,4-diamine], the residual activity at 10 µM stood at 45% in test [1] and 145% in test [5]. For the same compound, the remaining activity at 10 µM in test [2] came to 11%; in test [4], 32%; in test [6] it was 13%. The Ki in test [3] came to 0.018 µM. Moreover, in test [7], halving of growth (GI50) required 0.005 ± 0.002 µM.
Take `Cc1cnc(N[C@H]2CC[C@H](N)CC2)nc1-c1cnc2ccc(-c3ncccc3F)cn12` [Compound 30, (1r,4r)-N^1-(4-(6-(3-Fluoropyridin-2-yl)imidazo[1,2-a]pyridin-3-yl)-5-methylpyrimidin-2-yl)cyclohexane-1,4-diamine]: the remaining activity at 10 µM was determined as 17% in test [1]; 39% in test [2]; 67% in test [4]; 49% in test [5]; 13% in test [6]. Besides, in test [3], the Ki amounted to 0.12 µM. This compound also showed a GI50 in test [7] of 0.017 ± 0.006 µM.
In the case of `CCOc1ccc(Nc2ccc3ncc(-c4nc(N[C@H]5CC[C@H](N)CC5)ncc4C)n3c2)cn1` [Compound 67, (1r,4r)-N^1-(4-(6-((6-Ethoxypyridin-3-yl)amino)imidazo [1,2-a]pyridin-3-yl)-5-methylpyrimidin-2-yl)cyclohexane-1,4-diamine], the remaining activity at 10 µM is 31% in test [1]; 29% in test [2]; 38% in test [4]; 10% in test [5]; 52% in test [6]. The Ki in test [3] came to 0.017 µM. Also, in test [7], the GI50 was 0.128 ± 0.04 µM.
On to `N[C@H]1CC[C@H](Nc2ncc(F)c(-c3cnc4ccc(NC(=O)Cc5ccccc5)cn34)n2)CC1` [Compound 52, N-(3-(2-(((1r,4r)-4-Aminocyclohexyl)amino)-5-fluoropyrimidin-4-yl)imidazo[1,2-a]pyridin-6-yl)-2-phenylacetamide], for which the remaining activity at 10 µM in test [1] turned out to be 4%; in test [2], 21%; in test [4], 6%; in test [5], 7%; in test [6], 6%. In addition, the Ki in test [3] came to 0.013 µM. Moreover, halving of growth in test [7] (GI50) required 0.008 ± 0.003 µM.
